Values of other authors, collected in patent publication US20110123555A1, “PREPARATION AND UTILITY OF CCR5 INHIBITORS” (AUSPEX PHARMACEUTICALS, INC., priority 2006, published 2011).

Tested on: 200 clinically-derived pseudoviruses
Conditions: half of which are derived from viruses resistant to existing drug classes

For `Cc1nnc(C(C)C)n1C1CC2CCC(C1)N2CCC(NC(=O)C1CCC(F)(F)CC1)c1ccccc1` (stereo not shown) [Maraviroc], which “active in vitro against clinically-derived pseudoviruses” value is on record?
Its value is “active”.
